The results in this text go back to patent US9040547B2, “Pyrrolopyrimidine and purine derivatives” (PFIZER INC., priority 2011, dated 2015).

Molecules are shown by their SMILES. Some results are limits rather than exact numbers.

What all share (assay type): cell-based
The target in experiment [1] is T1, EGFR wildtype, endogenous (Homo sapiens, UniProt P00533).
T1 construct: A549 (EGFR wildtype, endogenous); host or cells: A549
The experiment can be described thus: pEGFR Y1068 ELISA assay, A549 cells.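 Also: sandwich ELISA of phospho-EGFR Tyr1068 in cell lysates, cells exposed to compound for 2 h before EGF stimulation, 11-point threefold dilution series run in duplicate.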 To be noted: full serum media, stimulated 10 min with EGF (40 ng/mL), read-out: pEGFRY1068 ELISAA549 IC50.

The target of the next experiment is EGFR L858R+T790M (Homo sapiens, UniProt P00533, L858R/T790M). The experiment in a line: pEGFR Y1068 ELISA assay, NIH3T3/EGFR_L858R+T790M cells.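 Also: sandwich ELISA of EGFR phosphorylated at Tyr1068 in lysates of stably transfected NIH/3T3 cells, 11-point threefold dilution series run in duplicate.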 To be noted: 3T3 cell line, 2 hrs compound treatment; read-out: pEGFRY1068 ELISA3T3T790M—L858R IC50.
In another experiment the target is EGFR L858R (Homo sapiens, UniProt P00533, L858R). The experiment in a line: pEGFR Y1068 ELISA assay, NIH3T3/EGFR_L858R cells.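 Also: sandwich ELISA of phospho-EGFR Tyr1068 in lysates of stably transfected NIH/3T3 pools after 2 h compound exposure at 37 °C, 11-point threefold dilution series run in duplicate.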 To be noted: 3T3 cell line, 2 hrs compound treatment; read-out: pEGFRY1068 ELISA3T3 L858R IC50. In general terms: An ELISA detects its analyte on a solid surface through an enzyme-linked reagent.
Chain of EGFR L858R (P00533 25-1210 L858R): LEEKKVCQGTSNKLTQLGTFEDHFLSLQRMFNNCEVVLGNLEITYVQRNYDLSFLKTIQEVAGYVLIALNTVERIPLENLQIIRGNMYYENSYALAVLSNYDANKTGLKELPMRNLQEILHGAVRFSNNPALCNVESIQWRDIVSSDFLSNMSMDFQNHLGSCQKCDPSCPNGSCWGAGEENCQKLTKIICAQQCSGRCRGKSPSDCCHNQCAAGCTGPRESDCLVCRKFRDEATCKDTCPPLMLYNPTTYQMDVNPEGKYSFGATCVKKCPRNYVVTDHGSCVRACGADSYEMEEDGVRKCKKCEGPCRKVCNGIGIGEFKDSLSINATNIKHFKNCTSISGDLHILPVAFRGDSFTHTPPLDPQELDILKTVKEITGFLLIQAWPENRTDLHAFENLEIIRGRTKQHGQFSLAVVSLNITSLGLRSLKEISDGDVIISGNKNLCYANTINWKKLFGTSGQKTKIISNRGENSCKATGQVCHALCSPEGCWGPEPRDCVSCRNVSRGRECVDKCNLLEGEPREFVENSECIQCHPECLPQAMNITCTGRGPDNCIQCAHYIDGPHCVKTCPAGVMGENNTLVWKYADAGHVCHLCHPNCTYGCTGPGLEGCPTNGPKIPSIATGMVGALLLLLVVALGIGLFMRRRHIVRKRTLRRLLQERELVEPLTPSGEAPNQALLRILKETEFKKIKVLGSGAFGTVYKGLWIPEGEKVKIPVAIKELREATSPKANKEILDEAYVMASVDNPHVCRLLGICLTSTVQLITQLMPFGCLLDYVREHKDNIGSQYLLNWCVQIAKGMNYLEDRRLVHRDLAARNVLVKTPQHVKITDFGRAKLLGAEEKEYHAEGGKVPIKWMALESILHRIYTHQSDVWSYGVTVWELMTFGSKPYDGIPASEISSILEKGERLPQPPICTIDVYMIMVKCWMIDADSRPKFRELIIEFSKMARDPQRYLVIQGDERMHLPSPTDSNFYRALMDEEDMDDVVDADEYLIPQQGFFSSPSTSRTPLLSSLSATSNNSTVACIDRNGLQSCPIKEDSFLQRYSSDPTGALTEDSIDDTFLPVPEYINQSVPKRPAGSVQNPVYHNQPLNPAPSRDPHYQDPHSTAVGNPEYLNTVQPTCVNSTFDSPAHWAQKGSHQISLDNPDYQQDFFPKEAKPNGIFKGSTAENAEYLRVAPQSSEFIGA

Chain of EGFR L858R+T790M (P00533 25-1210 T790M/L858R): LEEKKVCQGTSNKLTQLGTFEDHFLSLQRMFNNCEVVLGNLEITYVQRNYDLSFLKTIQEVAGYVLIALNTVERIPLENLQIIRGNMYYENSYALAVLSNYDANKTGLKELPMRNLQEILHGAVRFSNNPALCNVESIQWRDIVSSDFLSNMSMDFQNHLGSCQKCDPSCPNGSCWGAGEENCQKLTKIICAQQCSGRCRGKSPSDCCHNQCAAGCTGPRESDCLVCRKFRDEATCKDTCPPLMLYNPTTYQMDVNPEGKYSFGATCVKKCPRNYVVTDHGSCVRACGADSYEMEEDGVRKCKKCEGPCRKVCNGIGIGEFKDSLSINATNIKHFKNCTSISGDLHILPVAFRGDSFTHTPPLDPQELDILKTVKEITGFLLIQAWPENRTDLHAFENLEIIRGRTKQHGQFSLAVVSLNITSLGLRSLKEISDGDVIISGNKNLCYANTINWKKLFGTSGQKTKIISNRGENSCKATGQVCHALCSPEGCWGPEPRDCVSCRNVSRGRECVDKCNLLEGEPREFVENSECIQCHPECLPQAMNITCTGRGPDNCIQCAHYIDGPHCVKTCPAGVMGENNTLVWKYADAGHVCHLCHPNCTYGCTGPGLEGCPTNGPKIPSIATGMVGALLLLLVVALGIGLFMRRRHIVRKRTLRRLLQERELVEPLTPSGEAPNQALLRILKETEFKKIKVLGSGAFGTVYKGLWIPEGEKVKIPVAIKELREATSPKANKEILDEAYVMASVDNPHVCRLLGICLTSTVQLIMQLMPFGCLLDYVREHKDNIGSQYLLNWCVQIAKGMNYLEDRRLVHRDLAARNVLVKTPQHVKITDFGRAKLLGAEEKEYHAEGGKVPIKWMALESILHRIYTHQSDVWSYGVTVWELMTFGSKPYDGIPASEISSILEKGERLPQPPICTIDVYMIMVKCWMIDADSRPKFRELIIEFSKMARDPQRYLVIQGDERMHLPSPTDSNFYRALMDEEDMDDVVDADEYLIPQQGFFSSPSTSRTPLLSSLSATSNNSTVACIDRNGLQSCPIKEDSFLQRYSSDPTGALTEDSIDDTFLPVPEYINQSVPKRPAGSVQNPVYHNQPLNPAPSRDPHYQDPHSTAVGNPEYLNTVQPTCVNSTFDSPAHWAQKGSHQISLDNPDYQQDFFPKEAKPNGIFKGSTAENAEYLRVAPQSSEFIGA
T1 sequence (P00533 25-1210): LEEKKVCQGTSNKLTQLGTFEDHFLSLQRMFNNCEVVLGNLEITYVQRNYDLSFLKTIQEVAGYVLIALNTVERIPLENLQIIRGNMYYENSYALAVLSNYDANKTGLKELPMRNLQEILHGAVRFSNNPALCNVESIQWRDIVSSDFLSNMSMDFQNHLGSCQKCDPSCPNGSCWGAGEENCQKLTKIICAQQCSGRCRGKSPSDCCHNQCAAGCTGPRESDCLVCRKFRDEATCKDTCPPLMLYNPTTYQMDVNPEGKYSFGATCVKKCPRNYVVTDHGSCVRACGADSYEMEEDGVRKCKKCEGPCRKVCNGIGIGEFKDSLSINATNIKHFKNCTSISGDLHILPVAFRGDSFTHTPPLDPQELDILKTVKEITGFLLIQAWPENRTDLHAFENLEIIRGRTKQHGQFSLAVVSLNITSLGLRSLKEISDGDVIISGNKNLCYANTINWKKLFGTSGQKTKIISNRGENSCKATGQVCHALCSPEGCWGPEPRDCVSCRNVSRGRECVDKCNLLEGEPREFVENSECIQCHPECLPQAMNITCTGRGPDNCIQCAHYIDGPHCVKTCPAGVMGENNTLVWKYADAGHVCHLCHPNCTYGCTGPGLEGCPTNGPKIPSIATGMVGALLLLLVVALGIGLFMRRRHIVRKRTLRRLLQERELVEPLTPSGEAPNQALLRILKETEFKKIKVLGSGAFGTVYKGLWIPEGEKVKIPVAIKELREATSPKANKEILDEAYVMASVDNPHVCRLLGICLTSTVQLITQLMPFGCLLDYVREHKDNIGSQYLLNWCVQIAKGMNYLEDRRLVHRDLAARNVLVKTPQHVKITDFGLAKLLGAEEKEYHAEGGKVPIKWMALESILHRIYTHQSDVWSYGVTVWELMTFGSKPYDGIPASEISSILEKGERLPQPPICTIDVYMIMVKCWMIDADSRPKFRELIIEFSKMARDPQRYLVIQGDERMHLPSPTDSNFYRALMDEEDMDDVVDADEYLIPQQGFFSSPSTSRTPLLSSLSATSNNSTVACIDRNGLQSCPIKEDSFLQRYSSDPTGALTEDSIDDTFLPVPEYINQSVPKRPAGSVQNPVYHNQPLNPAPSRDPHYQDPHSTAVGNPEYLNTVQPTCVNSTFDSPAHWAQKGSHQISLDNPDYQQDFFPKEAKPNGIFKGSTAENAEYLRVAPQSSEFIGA

The IC50 is the concentration at which inhibition is half-maximal. As for `C=CC(=O)N1C[C@@H](COc2nc(Nc3cnn(C)c3)nc3[nH]ccc23)[C@H](C)C1` (single isomer, unassigned) [Example 3], the results for the IC50 (in experiment [1]; at EGFR L858R+T790M; on EGFR L858R) were 9060 nM, 57 nM and 733 nM, respectively.
As for `C=CC(=O)N1C[C@H](COc2nc(Nc3cnn(C)c3)nc3[nH]ccc23)[C@@H](C)C1` (single isomer, unassigned) [Example 4], the IC50 in experiment [1] is over 10000 nM; on EGFR L858R+T790M, 77 nM; on EGFR L858R it was 547 nM.
Turning to `C=CC(=O)N1C[C@@H](CC)[C@H](COc2nc(Nc3cnn(C)c3)nc3[nH]ccc23)C1` (single isomer, unassigned) [Example 15], the IC50 in experiment [1] was over 10000 nM; on EGFR L858R+T790M, 182 nM; on EGFR L858R it was 834 nM.
Take `C=CC(=O)Nc1cccc(Oc2nc(Nc3ccn(C)n3)nc3[nH]cc(F)c23)c1` [Example 1, N-[3-({5-fluoro-2-[(1-methyl-1H-pyrazol-3-yl)amino]-7H-pyrrolo[2,3-d]pyrimidin-4-yl}oxy)phenyl]prop-2-enamide]: the IC50 is over 10000 nM in experiment [1], 33 nM on EGFR L858R+T790M and 585 nM on EGFR L858R.
The corresponding values for `C=CC(=O)N[C@H]1C[C@H](Nc2nc(Nc3cnn(C)c3)nc3[nH]ccc23)C1` [Example 6, N-[trans-3-({2-[(1-methyl-1H-pyrazol-4-yl)amino]-7H-pyrrolo[2,3-d]pyrimidin-4-yl}amino)cyclobutyl]prop-2-enamide] are over 10000 nM, over 10000 nM and over 10000 nM.
On to `C=CC(=O)N[C@H]1C[C@H](Oc2nc(Nc3cnn(C)c3)nc3[nH]cc(C#N)c23)C1` [Example 14], for which the IC50 in experiment [1] is over 10000 nM; at EGFR L858R+T790M it was 1800 nM; at EGFR L858R it was over 10000 nM.
For the compound `C=CC(=O)N1CC(COc2nc(Nc3cnn(C)c3)nc3[nH]ccc23)C1` [Example 16], the half-inhibitory concentration (IC50) in experiment [1] was over 10000 nM; on EGFR L858R+T790M it was 308 nM; on EGFR L858R it was 2510 nM.
As for `C=CC(=O)N1CCO[C@@H](COc2nc(Nc3cnn(C)c3)nc3[nH]ccc23)C1` [Example 17], the IC50 in experiment [1] was over 10000 nM; at EGFR L858R+T790M, 104 nM; at EGFR L858R, 2030 nM.
The corresponding values for `C=CC(=O)N1CCO[C@H](COc2nc(Nc3cnn(C)c3)nc3[nH]ccc23)C1` [Example 18] are over 10000 nM, 79 nM and 1500 nM.
The matching figures for `C=CC(=O)Nc1cccc(Oc2nc(Nc3cnn(C)c3C)nc3[nH]ccc23)c1` [Example 24]: 6740 nM, 20 nM and 275 nM.
Turning to `C=CC(=O)Nc1cccc(Oc2nc(Nc3cnn(CC(C)(C)O)c3)nc3[nH]ccc23)c1` [Example 25], the IC50 in experiment [1] was over 10000 nM; at EGFR L858R+T790M, 69 nM; on EGFR L858R, 1030 nM.
On to `C=CC(=O)N1CCc2c(Oc3nc(Nc4cnn(C)c4)nc4[nH]cc(C#N)c34)cccc21` [Example 37], for which the values for the 50% inhibitory concentration (IC50) (in experiment [1]; at EGFR L858R+T790M; on EGFR L858R) were over 10000 nM, 41 nM and 67 nM, respectively.
On to `C=CC(=O)N1CCc2c(Oc3nc(Nc4cnn(C)c4)nc4[nH]ccc34)cccc21` [Example 38], for which the IC50 in experiment [1] came to 5900 nM; at EGFR L858R+T790M it was 8 nM; at EGFR L858R, 90 nM.
The matching figures for `C=CC(=O)Nc1cccc(COc2nc(Nc3cnn(C)c3)nc3[nH]ccc23)c1` [Example 43]: over 10000 nM, 5340 nM and over 10000 nM.
Take `C=CC(=O)Nc1cccc(Oc2nc(Nc3cc(COC)nn3C)nc3[nH]ccc23)c1` [Example 45]: the IC50 is over 10000 nM in experiment [1], 84 nM on EGFR L858R+T790M and 700 nM on EGFR L858R.
The corresponding values for `C=CC(=O)Nc1cccc(Oc2nc(Nc3cc(C4CC4)nn3C)nc3[nH]ccc23)c1` [Example 46] are over 10000 nM, 80 nM and 495 nM.
